Source: publication PMC9970268 (Cancer Research Communications, 2022)

Key:
[1] = GLP toxicity studies; details: GLP data from a Contact Research Organization; rodents or dogs
[2] = mice; cited from earlier work
[3] = system: Cdc42; details: metastatic breast cancer cells; cited from earlier work
[4] = in vivo; details: rats and dogs
[5] = system: HER-2–positive (HER2+) tumor; details: immunocompromised mice; cited from earlier work
[6] = target: T1, Rac1 (Homo sapiens, UniProt P63000); experiment: Nucleotide association assay, catalyzed by Vav2; assay type: biochemical; design: purchased Cytoskeleton, Inc; details: 2 or 10 μmol/L, N-MAR-GTP
Method: (§2) The nucleotide loading on purified Rho GTPases was monitored using a fluorophore-based Rho GEF Exchange Assay Kit as per manufacturer's instructions (Cytoskeleton, Inc.). Drugs were diluted in exchange buffer and incubated with Rac1, Cdc42, or RhoA. […] After the initial five readings (T0), GEFs (Dbs or Vav2) or Ethylenediaminetetraacetic acid (EDTA) was added to stimulate exchange and readings were obtained every 30 seconds for at least 60 cycles.

[7] = target: T1, Rac1; experiment: Rac activation pulldown assay (PAK p21-binding domain); details: GFP-HER2-BM cells, 250 nmol/L, 24 hours
Method: (§3) Rac-GTP and Cdc42-GTP were detected using Rac Activity Assay or Cdc42 Activity Assay, as per manufacturer's instructions (Cell Signaling Technology). Briefly, total cell lysates were quantified and added equally to PAK-p21–binding domain conjugated Sepharose beads. After 1 hour of incubation, beads were washed, bound proteins extracted in sample buffer, and Rac1-GTP and Cdc42-GTP detected by Western blot analysis using Rac1, Rac1b, or Cdc42 antibody. (n = 3 biological replicates).
(§4) Total cell lysates or pulldowns were Western blotted using routine procedures. The primary antibodies used were anti-Rac (Cell Signaling Technology), anti-Cdc42 (Abcam), anti-PAK1+PAK2+PAK3 (Cell Signaling Technology), anti-pPAK1 (T423)/PAK2 (T402; Abcam), anti-PAK1 + PAK2 + PAK3 (phospho T423; Abcam), Rac1B, and β-actin (Millipore-Sigma).

[8] = target: Rac1B splice variant (Homo sapiens, UniProt P63000); experiment: Rac1B activation pulldown assay in MDA-MB-468 cells; details: MDA-MB-468, 500 nmol/L, 24 hours
Method: as §3, §4

[9] = system: GFP-HER2-BM cells; experiment: Apoptosis assay (Caspase-Glo3/7); assay type: cell-based, human; details: 500 nmol/L, 48 hours
Method: (§1) Apoptosis was measured using a Caspase-Glo3/7 Luminescence Assay Kit as per manufacturer's instructions (Promega, Corp.), as described previously ([23]). Briefly, Caspase-3/7 Glo reagent was added and incubated at room temperature for 60 minutes and caspase-3/7 activities were determined by detecting luminescence using Tecan Microplate Reader M100 (Tecan). Data were calculated as fold change from vehicle. (n = 3 biologic replicates: with three technical replicates each).

[10] = system: MDA-MB-468 cells; experiment: Apoptosis assay (Caspase-Glo3/7); assay type: cell-based, human; details: 500 nmol/L, 48 hours
Method: as §1

[11] = system: MDA-MB-231 cells; experiment: Apoptosis assay (Caspase-Glo3/7); assay type: cell-based, human; details: 500 nmol/L, 48 hours
Method: as §1

[12] = system: GFP-HER2-BM cells; experiment: Transwell directed migration of attached and detached cells; assay type: cell-based, human; details: treated 24 hr
Method: migration. Cells treated for 24hr and the attached and detached cell populations recovered and equal cell numbers were seeded on Transwells with […] and incubated for 7 hr.
Cells that migrated to the underside of the membrane were stained with propidium iodide and imaged at 20X. Representatives images are a result from two technical replicates and three […]
(1 picture or pasted object on this page, not shown here)

[13] = target: T1, Rac1; experiment: Nucleotide association assay, induced by EDTA; details: read-out: inhibition of EDTA-induced loading of N-MAR-GTP on Rac1
Method: as §2
(§5) After initial five readings, the exchange factor Dbs was added to catalyze the loading of N-
(§6) B. 2µM Rac1 was incubated with 0 or 2 µM

[14] = target: RhoA (Homo sapiens, UniProt P61586); experiment: Nucleotide association assay, catalyzed by Dbs; details: 2 μmol/L, N-MAR-GTP
RhoA, sequence (P61586 whole entry): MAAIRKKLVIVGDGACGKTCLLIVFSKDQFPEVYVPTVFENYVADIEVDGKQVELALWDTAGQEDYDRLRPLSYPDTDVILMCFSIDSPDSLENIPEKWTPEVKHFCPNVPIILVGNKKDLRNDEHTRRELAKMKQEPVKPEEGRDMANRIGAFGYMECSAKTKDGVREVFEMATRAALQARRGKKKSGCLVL
Method: as §2, §5, §6

[15] = target: T1, Rac1; experiment: Rac activation pulldown assay in MDA-MB-231 cells; details: MDA-MB-231, 24 hours, various concentrations
Method: as §3, §4

[16] = target: Cdc42 (Homo sapiens, UniProt P60953); experiment: Cdc42 activation pulldown assay in MDA-MB-231 cells; details: MDA-MB-231, 24 hours
Cdc42 (Homo sapiens, UniProt P60953), sequence (P60953 whole entry): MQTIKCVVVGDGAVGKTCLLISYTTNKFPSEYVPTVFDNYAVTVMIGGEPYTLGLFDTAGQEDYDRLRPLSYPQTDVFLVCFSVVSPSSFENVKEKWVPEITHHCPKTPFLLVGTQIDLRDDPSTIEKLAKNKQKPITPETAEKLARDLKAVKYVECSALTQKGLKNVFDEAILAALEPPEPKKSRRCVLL
Method: as §3, §4

[17] = target: T2, Rac1(G15A) interaction with Vav2 (Homo sapiens, UniProt P63000, G15A); experiment: Rac1 (G15A) pulldown assay, Vav2; assay type: binding; details: 250 nmol/L, 1 hour preincubation, MDA-MB-231 cell lysates
T2 construct: purchased Cell Biolabs; host or cells: GEF from MDA-MB-231 lysate
Method: MDA-MB-231 cells were lysed in 1% Triton X-100, 20 mmol/L HEPES, pH 7.4, 150 mmol/L NaCl, 5 mmol/L MgCl2, and protease inhibitors, and processed as described previously ([20]). Equal amounts of protein from cleared lysates were incubated for 1 hour at 4°C with glutathione-agarose beads conjugated to GST-Rac1 and GST-Cdc42(G15A) nucleotide-free mutant (Cell Biolabs) that were preincubated (for 1 hour) with vehicle or Rac/Cdc42 inhibitors, as indicated. The beads were washed, and pulldowns were immunoblotted for Vav2 or Ect2.

Row | SMILES | dose with no apparent toxicity [1] | half-life in plasma [2] | half-life in tumor tissue [2] | IC50 [3] | NOAEL [4] | inhibition of HER2+ tumor growth and metastasis to all organs [5] | inhibition of GTP loading on Rac1 catalyzed by Vav2 [6] | Rac1-GTP ([7]; attached and detached cell population) | reduction of Rac1 activation (Rac1.GTP) ([7]; attached cell population) | decrease in Rac1 expression ([7]; detached cell population) | activation and expression of Rac1B [8] | Caspase-3/7 activity [9] | Caspase-3/7 activity [10] | Caspase-3/7 activity [11] | directed migration [12] | inhibition at 2 µM [13] | Dbs-catalyzed exchange of RhoA [14] | Rac.GTP incorporation [15] | Cdc42 activity [16] | Rac1(G15A) interaction with Vav2 [17]
1 | CCn1c2ccccc2c2cc(-n3nncc3-c3ccccc3)ccc21 [MBQ-167] | up to 1,000 mg/kg | approximately 2.5 hours | approximately 8 hours | 78 nM | 1000 mg/kg | approximately 90% | – | – | – | – | – | – | – | – | – | – | – | – | – | –
2 | CCn1c2ccccc2c2cc(-n3nncc3-c3cccc(OC)c3)ccc21 [MBQ-168] | – | – | – | – | – | – | ≥ 30% | complete depletion | approximately 100% | approximately 100% | inhibited activation of Rac1B, as well as expression | significantly increased Caspase-3/7 activity | significantly increased Caspase-3/7 activity | significantly increased Caspase-3/7 activity | both cell types were inhibited | ~50% | did not affect | inhibits Rac.GTP incorporation in a dose-dependent manner | reduced in a dose-dependent manner | no effect
